Measured values from publication PMC5515969, “Effects of 31 FDA approved small-molecule kinase inhibitors on isolated rat liver mitochondria” (Archives of Toxicology, 2016).
Read-outs that look alike come from different tables or passages of the source.

Assays:
[1] = cited from earlier work
[2] = cited from earlier work; remark: listed apart in the source
[3] = test system: RCC I–V; test: Activities of RCC I–V, overall statements; type: biochemical, rat; details: submitochondrial particles
Description: KIs were incubated with submitochondrial particles (1 mg/ml) for 15 min and then RCC I–V activities measured. […] The activities of DMSO-treated samples (controls) were set as 1. […] The difference between the activity from rotenone-containing buffer and rotenone-absent buffer was considered as RCC I activity. […] For measuring RCC I/V and II activity, the changes in absorbance at 340 and 600 nm, respectively, were determined every 1 min for 6 min. For measuring RCC III and RCC IV, the changes in absorbance at 550 nm were measured every 10 s for 2 min.

[4] = test system: RCC V; test: RCC V activity in submitochondrial particles; type: biochemical, rat; on RCC V at 5XCmax: key: 0 indicates that the drug had no effects (negative)
Method in brief: (§1)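 Absorbance kinetics: A340 (RCC I, V) and A600 (RCC II) read each minute over 6 min, A550 (RCC III, IV) every 10 s over 2 min; RCC I taken as […]. Particles (1 mg/ml) pretreated 15 min with compound; DMSO-treated activity = 1.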

[5] = test system: RCC I; test: RCC I activity in submitochondrial particles; type: biochemical, rat; design: key to RCC I at 10XCmax / RCC I at 100XCmax / RCC I at 50XCmax / RCC I at 30XCmax / RCC I at 20XCmax: activity relative to DMSO-treated controls (control set as 1 = 100%); details: for RCC activity I: 15 min, DMSO-treated = 100
Method in brief: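 Kinase inhibitors were preincubated 15 min with submitochondrial particles (1 mg/ml) before complex activities were measured. RCC I was the rotenone-sensitive portion (activity without minus with rotenone). RCC I/V was read at 340 nm and RCC II at 600 nm every 1 min for 6 min. RCC III and IV were read at 550 nm every 10 s for 2 min. Activities are normalized to DMSO controls set as 1.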

[6] = test system: RCC III; test: RCC III activity in submitochondrial particles; type: biochemical, rat; design: key to RCC III at 100XCmax: activity relative to DMSO-treated controls (control set as 1 = 100%); details: for RCC activity III: 15 min, DMSO-treated = 100
Method in brief: as §1

[7] = test system: RCC IV; test: RCC IV activity in submitochondrial particles; type: biochemical, rat; design: key to RCC IV at 50XCmax / RCC IV at 100XCmax: activity relative to DMSO-treated controls (control set as 1 = 100%); details: for RCC activity IV: 15 min, DMSO-treated = 100
Method in brief: as §1

[8] = test system: isolated rat liver mitochondria; test: Mitochondrial oxygen consumption (glutamate/malate or succinate driven, state 4 and state 3); type: biochemical; on State 3 respiration driven by succinate at 10XCmax: key: 0 indicates that the drug had no effects (negative); on State 3 respiration driven by succinate at 1XCmax: key: 0 indicates that the drug had no effects (negative)
Method in brief: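 Oxygen uptake on glutamate/malate or on succinate defined state 4; ADP added 3 min later gave state 3. Mitochondria isolated from rat liver by differential centrifugation, adjusted to 1 mg/ml and pretreated 5 min with inhibitor (0.1% DMSO final). Values relative to DMSO control, set to 1.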

[9] = test system: isolated rat liver mitochondria; details: positive control alamethicin treated samples
[10] = ref product labeling, cited from earlier work
[11] = test system: isolated rat liver mitochondria; test: Mitochondrial inner membrane potential (MMP), Rhodamine 123; type: biochemical; details: difference in signal between KI and DMSO treated samples at the end of experiments
Description: Fig. 3 KI effects on mitochondrial inner membrane potential (MMP). […] In a, c, data are means and standard derivations from three separate experiments. *p < 0.05 as compared to DMSO-treated samples at the end of experiments. In b, data are means of two independent experiments

[12] = test system: isolated rat liver mitochondria; test: Mitochondrial toxicity, any endpoint, intact mitochondria and submitochondrial particles; type: biochemical; details: highest concentrations tested
Description: Rats were anesthetized by an intraperitoneal injection of Nembutal and the liver perfused with PBS to remove the blood. The liver was then cut into small pieces and homogenized using a Dounce type homogenizer in the ice-cold isolation buffer (IB) containing 200 mM sucrose, 10 mM Tris-MOPS, 1 mM EGTA (pH 7.4). The sample was then centrifuged at 600g for 10 min. The supernatant was further centrifuged at 7500g for 10 min, and the pellets was washed once with the IB and centrifuged again at 7500g for 10 min to collect mitochondria. […] Before drug treatment, the protein concentration was adjusted to 1 mg/ml using appropriate buffer. […] Briefly, mitochondrial and cytosolic fractions from four different preparations using four rats were diluted using the Laemmli protein loading buffer and subject to SDS-PAGE with 4–20% gradient gels. The proteins were blotted to PVDF membranes and detected using antibodies against GAPDH, ATP5A, UQCRC2, SDHB, and NDUFB8.
The aliquoted stock solutions were kept for less than one month and each tube was used only once. The KIs were added to the mitochondria at 1:1000 dilutions. […] The Cmax data were from clinical trials which used FDA recommend dosages, route of administration, and duration. […] The final concentration of DMSO for drug treatment was always 0.1%, and control treatments were 0.1% DMSO.

[13] = target: T1, RCC II (Rattus norvegicus, UniProt P21913+Q641Z9+Q6PCT8+Q920L2); test: RCC II activity in submitochondrial particles; type: biochemical; design: key: activity relative to DMSO-treated controls (control set as 1 = 100%); details: DMSO treated samples set as 1
T1 construct: Submitochondrial particles were prepared by subjecting the intact mitochondria to three successive freeze–thaw cycles; from tissue; host or cells: rat liver mitochondria, used as submitochondrial particles
T1 sequence (Q920L2 35-656): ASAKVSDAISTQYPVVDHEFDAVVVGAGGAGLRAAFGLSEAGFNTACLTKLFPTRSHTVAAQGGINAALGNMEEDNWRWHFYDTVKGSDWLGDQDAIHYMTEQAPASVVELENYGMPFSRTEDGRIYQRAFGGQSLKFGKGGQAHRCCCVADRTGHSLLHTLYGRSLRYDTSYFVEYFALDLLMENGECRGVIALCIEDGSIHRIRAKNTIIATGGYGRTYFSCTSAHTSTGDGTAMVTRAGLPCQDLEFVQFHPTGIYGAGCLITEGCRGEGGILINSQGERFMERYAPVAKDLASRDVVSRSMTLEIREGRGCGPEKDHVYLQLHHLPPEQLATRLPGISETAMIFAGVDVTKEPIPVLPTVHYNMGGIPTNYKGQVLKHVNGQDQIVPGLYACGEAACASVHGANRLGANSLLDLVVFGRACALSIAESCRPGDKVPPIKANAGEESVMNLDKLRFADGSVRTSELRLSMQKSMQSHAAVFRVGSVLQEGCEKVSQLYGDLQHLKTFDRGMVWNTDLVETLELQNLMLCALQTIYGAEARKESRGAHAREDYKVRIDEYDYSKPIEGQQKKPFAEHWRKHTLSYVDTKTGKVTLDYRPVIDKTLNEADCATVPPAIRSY
T1 sequence (P21913 31-282): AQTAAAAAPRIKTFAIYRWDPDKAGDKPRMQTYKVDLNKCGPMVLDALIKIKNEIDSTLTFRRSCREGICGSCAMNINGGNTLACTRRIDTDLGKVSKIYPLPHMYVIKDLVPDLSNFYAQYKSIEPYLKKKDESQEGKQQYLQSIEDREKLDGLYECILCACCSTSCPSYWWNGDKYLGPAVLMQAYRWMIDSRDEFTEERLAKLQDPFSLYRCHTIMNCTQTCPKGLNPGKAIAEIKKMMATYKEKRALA
T1 sequence (Q641Z9 1-169): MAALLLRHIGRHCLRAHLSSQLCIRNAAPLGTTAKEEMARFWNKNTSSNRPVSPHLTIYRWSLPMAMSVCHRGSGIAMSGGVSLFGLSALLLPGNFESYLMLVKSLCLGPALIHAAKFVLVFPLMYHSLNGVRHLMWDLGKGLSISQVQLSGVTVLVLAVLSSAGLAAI
T1 sequence (Q6PCT8 57-159): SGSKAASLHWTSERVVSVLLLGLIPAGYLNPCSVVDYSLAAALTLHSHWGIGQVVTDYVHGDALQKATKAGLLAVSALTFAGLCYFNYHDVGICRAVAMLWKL
Method in brief: as §1

[14] = test system: isolated rat liver mitochondria; test: Mitochondrial ROS production (CM-H2DCFDA); details: DMSO treated samples set as 1
[15] = test system: isolated rat liver mitochondria; test: Mitochondrial swelling (absorbance at 535 nm); type: biochemical; details: difference in signal between KI and DMSO treated samples at the end of experiments; on Swelling 5XCmax: key: 0 indicates that the drug had no effects (negative)
[16] = human therapeutic Cmax at FDA recommended dosages, ref product labeling and drug approval packages at the official FDA website
[17] = 5XCmax, DMSO treated samples set as 1
[18] = 50XCmax, DMSO treated samples set as 1
[19] = 10XCmax, DMSO treated samples set as 1
[20] = 1XCmax, DMSO treated samples set as 1
[21] = 2.5XCmax, DMSO treated samples set as 1
[22] = 20XCmax, DMSO treated samples set as 1
[23] = 30XCmax, DMSO treated samples set as 1
[24] = 100XCmax, DMSO treated samples set as 1

C#Cc1cccc(Nc2ncnc3cc(OCCOC)c(OCCOC)cc23)c1 [Erlotinib]
Cmax [1, 16]: 3.44 µM | labeling for DILI ([2]; in vivo): W&P: fatal DILI | DILI potential (based on labeling) ([2]; ref FDA product labeling): 1 | lowest concentration inhibiting RCCs [3]: 10 fold Cmax | RCC activity V ([4]; 10-fold Cmax, 15 min, DMSO-treated = 100): 83.52 ± 2.96 % of control | RCC activity I ([5]; 10-fold Cmax): 90.62 ± 2.87 % of control | RCC activity III ([6]; 10-fold Cmax): 103.11 ± 12.25 % of control | RCC activity IV ([7]; 10-fold Cmax): 98.77 ± 4.53 % of control

Cc1ccc(Nc2nccc(N(C)c3ccc4c(C)n(C)nc4c3)n2)cc1S(N)(=O)=O [Pazopanib]
Cmax [1, 16]: 133 µM | Cmax ([1]; human therapeutic Cmax at FDA recommended dosages, ref product labeling and drug approval packages at the official FDA website, listed as pazopanib): 133 µM | lowest concentration inhibiting RCCs [3]: equal to Cmax | RCCs inhibited ([3]; up to 100-fold Cmax or highest testable concentration): inhibitor of RCC I but not other RCCs | RCC activity I ([5]; 1-fold Cmax): 83.77 ± 2.98 % of control | RCC activity III ([6]; 1-fold Cmax): 96.90 ± 11.69 % of control | RCC activity IV ([7]; 1-fold Cmax): 102.68 ± 0.57 % of control | inhibition of state 3 mitochondrial respiration driven by glutamate/malate ([8]; onefold Cmax): over 50%

Cc1ccc(C(=O)Nc2ccc(CN3CCN(C)CC3)c(C(F)(F)F)c2)cc1C#Cc1cnc2cccnn12 [Ponatinib]
Cytochrome c release 1XCmax ([9]; 1XCmax): 0 | Cytochrome c release 2.5XCmax ([9]; 2.5XCmax): 0 | Cytochrome c release 5XCmax ([9]; 5XCmax): 0 | Cytochrome c release 10XCmax ([9]; 10XCmax): 0 | Cytochrome c release 20XCmax ([9]; 20XCmax): 0 | Cytochrome c release 30XCmax ([9]; 30XCmax): 0 | Cytochrome c release 50XCmax ([9]; 50XCmax): 0 | Cytochrome c release 100XCmax ([9]; 100XCmax): 0 | Cmax (ng or µg/ml) ([1]; human therapeutic maximal blood concentration, ref product labeling): 0.073 µg/mL | Cmax ([1]; read-out: Cmax at µM, human therapeutic maximal blood concentration, ref product labeling): 0.14 µM | DILI potential (based on labeling) ([2]; in vivo): 1 | Labeling for DILI ([2]; in vivo): BBW: fatal DILI | labeling for DILI ([2]; in vivo): BBW: fatal DILI | Labeling for cardiotoxicity ([10]; BBW: black box warning, W&P: Warnings and Precautions): BBW: Heart Failure | Potential for cardiotoxicity (based on labeling) [10]: 1 | MMP measured by Rhodamine 123 at 1XCmax ([11]; 1XCmax): 0 | MMP measured by Rhodamine 123 at 2.5XCmax ([11]; 2.5XCmax): 0 | MMP measured by Rhodamine 123 at 5XCmax ([11]; 5XCmax): 0 | MMP measured by Rhodamine 123 at 10XCmax ([11]; 10XCmax): 0 | MMP measured by Rhodamine 123 at 20XCmax ([11]; 20XCmax): 0 | MMP measured by Rhodamine 123 at 30XCmax ([11]; 30XCmax): 0 | MMP measured by Rhodamine 123 at 50XCmax ([11]; 50XCmax): 0 | MMP measured by Rhodamine 123 at 100XCmax ([11]; 100XCmax): 0 | RCC V at 5XCmax [4, 17]: 0 | RCC V at 50XCmax [4, 18]: 0 | RCC I at 10XCmax [5, 19]: 0 | effects on intact mitochondria or submitochondrial particles [12]: no effects | RCC II at 1.0XCmax ([13]; 1.0XCmax): 0 | RCC II at 2.5XCmax ([13]; 2.5XCmax): 0 | RCC II at 5XCmax ([13]; 5XCmax): 0 | RCC II at 10XCmax ([13]; 10XCmax): 0 | RCC II at 20XCmax ([13]; 20XCmax): 0 | RCC II at 30XCmax ([13]; 30XCmax): 0 | RCC II at 50XCmax ([13]; 50XCmax): 0 | RCC II at 100XCmax ([13]; 100XCmax): 0 | ROS measured by CM-H2DCFDA at 1XCmax ([14]; 1XCmax): 0 | ROS measured by CM-H2DCFDA at 2.5XCmax ([14]; 2.5XCmax): 0 | ROS measured by CM-H2DCFDA at 5XCmax ([14]; 5XCmax): 0 | ROS measured by CM-H2DCFDA at 10XCmax ([14]; 10XCmax): 0 | ROS measured by CM-H2DCFDA at 20XCmax ([14]; 20XCmax): 0 | ROS measured by CM-H2DCFDA at 30XCmax ([14]; 30XCmax): 0 | ROS measured by CM-H2DCFDA at 50XCmax ([14]; 50XCmax): 0 | ROS measured by CM-H2DCFDA at 100XCmax ([14]; 100XCmax): 0 | RCC III at 100XCmax ([6]; 100XCmax): 0 | RCC IV at 50XCmax ([7]; 50XCmax, DMSO treated samples set as 1, in %): 0 | Swelling 1XCmax ([15]; 1XCmax): 0 | Swelling 2.5XCmax ([15]; 2.5XCmax): 0 | Swelling 5XCmax ([15]; 5XCmax): 0 | Swelling 10XCmax ([15]; 10XCmax): 0 | Swelling 20XCmax ([15]; 20XCmax): 0 | Swelling 30XCmax ([15]; 30XCmax): 0 | Swelling 50XCmax ([15]; 50XCmax): 0 | Swelling 100XCmax ([15]; 100XCmax): 0 | State 3 respiration driven by succinate at 1XCmax [8, 20]: 0 | State 4 respiration driven by succinate at 1XCmax [8, 20]: 0 | State 3 respiration driven by succinate at 2.5XCmax [8, 21]: 0 | State 4 respiration driven by succinate at 2.5XCmax [8, 21]: 0 | State 3 respiration driven by succinate at 5XCmax [8, 17]: 0 | State 4 respiration driven by succinate at 5XCmax [8, 17]: 0 | State 3 respiration driven by succinate at 10XCmax [8, 19]: 0 | State 4 respiration driven by succinate at 10XCmax [8, 19]: 0 | State 3 respiration driven by succinate at 20XCmax [8, 22]: 0 | State 4 respiration driven by succinate at 20XCmax [8, 22]: 0 | State 3 respiration driven by succinate at 30XCmax [8, 23]: 0 | State 4 respiration driven by succinate at 30XCmax [8, 23]: 0 | State 3 respiration driven by succinate at 50XCmax [8, 18]: 0 | State 4 respiration driven by succinate at 50XCmax [8, 18]: 0 | State 3 respiration driven by succinate at 100XCmax [8, 24]: 0 | State 4 respiration driven by succinate at 100XCmax [8, 24]: 0
